We go through one molecule from patent US11865116B2, “Treatment of cancer with TG02” (Cothera Bioscience, Inc., priority 2016, dated 2024).

The test system of the test is mouse glioma GL261 cells. In words: Mouse glioma GL261 cell allograft model, survival. It counts as in vivo. The following applies: female C57BL/6 albino mice, GL261 cells in the striatum; vehicle 24 days. The procedure: Mouse glioma GL261 cells were injected stereotactically into the striatum of female C57BL/6 albino mice (n=5-7 per cohort) followed by vehicle, TG02, TMZ, and TG02+TMZ combination treatment. A median overall survival of 24, 24.5, 27.5, and 32 days, respectively was observed. The result was analyzed using Logrank test for trend in GraphPad Prism software (Chi square=9.063, df=1, P value=0.0026**). The turmor burden was determined by bioluminescence imaging (BLI) taken using the PerkinElmer IVIS® Spectrum. The intensity of BLI was calculated and normalized to the initial intensity at day 5.

As for `Cn1nnc2c(C(N)=O)ncn2c1=O` [TMZ, temozolomide, reference compound], the median overall survival was 27.5 days.
